Entries after “also recorded” stand apart in the source; their conditions may differ.
Experiments:
[1] = test system: testicular steroidogensis; assay: Inhibition of testicular steroidogenesis in healthy men, single intranasal dose; seric LH, FSH and steroids by radioimmunoassay; assay type: in vivo
Method: The inhibitory activity of [D Ser (tbu)^6 of des Gly NH2^10 ] LH-RH ethylamide (described in German application Ser. No. 2,438,350) against testicular steroidogensis in men in good health was determined on men in good health aged 30 to 40 years. The said product was administered intranasally at a dose of 500 μg in a few drops of distilled water at 8 A.M. on the third day of the test. For 2 days prior to the treatment and for 6 days after the treatment, samples of blood were taken daily at 8 A.M., 3 P.M. and 10 P.M. On the day of administration of the LH-RH agonist, blood samples were taken at 11 A.M. and 6 P.M.
The seric concentrations of LH and FSH were measured by radioimmuno-logic dosages with double antibodies and the antibodies for measuring LH and FSH were furnished by the National Pituitary Agency of N.I.H. in Bethesda, Md. The seric concentrations of steroids was measured by radioimmuno-logic dosages in which one ml of serum was extracted with ether and the steroids were separated on a LH-20 column before measuring with radioimmuno-logic dosages. The radioimmuno-logic dosage results were determined by a program derived from model II of Rodbard et al [Second Karolinska Symposium on Research Methods in Reproductive Endrocrinology, Diczfalusky Editor, Copenhague (1970), p. 79-103]. The statistical significance was determined by the "multiple level test" of Ducan-Kramer [Kramer, Biometrics, Vol 12 (1956), p. 307]. The results are shown in the graphs on sheet 1 of the FIGS. filed herewith.

[2] = test system: ovarian steroidogenosis; assay: Inhibition of ovarian steroidogenesis in women, intranasal, 6 consecutive cycles; assay type: in vivo; conditions: for reduction of seric levels of progesterone as compared to the controls: typical case (sheet 3)
Method: The inhibitory activity of [D Ser (tbu)^6 des Gly NH2^10 ] LH-RH ethylamide on ovarian steroidogenosis in women was determined on 6 women aged 26 to 35 years with normal and regular menstrual cycles and without prior endocrinal or gynecological problems. The study was conducted for 6 consecutive cycles consisting of 2 pretreatment cycles, 2 treatment cycles and 2 post-treatment cycles. Two drops of a solution containing 500 μg of [D Ser (tbu)^6 des Gly NH2^10 ] LH-RH ethylamide were deposited on each nostril at 8 A.M. and 5P.M. of a day between the 4th and 9th day after the peak of LH-day 0. Daily blood samples were taken between 4 and 6 P.M. to measure seric levels of LH, FSH, progesterone and estradiol which were determined by radioimmuno-logictests with double antibodies. The antibodies to measure LH and FSH were furnished by the National Pituitory Agency of N.I.H. of Bethesda, Md.
Estradiol and progesterone were measued with highly specific antibodies developed against 7-(0-carboxymethyl)oxime of estradiol and 12-(0-carboxymethyl)-oxime of progesterone, respectively [3H] 17β-estradiol and ^125 I-progesterone-12-[0-carboxymethyl)-oxime]used as tracers. The serum was extracted with benzene and the steroids were separated with a LH-20 column before the determination. The radioimmunological results were exploited by the program derived from model II of Rodbard and Lewald as in Example 1 and the statistical significance was measured by the multiple level test of Ducan-Kramer of Example 1. The results are shown in the graphs of sheets 3 to 5 of the FIG.

[3] = test system: testicular steriodogenosis; assay: Inhibition of testicular steroidogenesis in a patient with prostate cancer, intranasal twice a day; assay type: in vivo, human; conditions: intranasal 500 μg twice a day
Description: The inhibitory activity of [D Ser (tbu)^6 des Gly NH2^10 ] […] The results are reported in the graphs of sheet 2 of the Figures.

SMILES: CCNC(=O)[C@@H]1CCCN1C(=O)[C@H](CCCNC(=N)N)NC(=O)[C@H](CC(C)C)NC(=O)[C@@H](COC(C)(C)C)NC(=O)[C@H](Cc1ccc(O)cc1)NC(=O)[C@H](CO)NC(=O)[C@H](Cc1c[nH]c2ccccc12)NC(=O)[C@H](Cc1c[nH]cn1)NC(=O)[C@@H]1CCC(=O)N1 [[D Ser (tbu)^6 des Gly NH2^10] LH-RH ethylamide]
- duration of drop of seric levels of testicular steroids (testosterone and its precursors) ([1]; human, single intranasal dose 500 μg): 3 days
- level of testosterone/steroids on the fourth day after administration ([1]; human, single intranasal dose 500 μg, fourth day (until 6th day)): returned to normal; also recorded: return to normal levels
- overall effect on testicular steroidogenesis ([1]; men, intranasal 500 μg): inhibition of testicular steroidogenesis
- level of progesterone, cycles of pretreatment as base of 100% ([2]; 12 cycles of post-treatment): 99%
- level of progesterone, cycles of pretreatment as base of 100% ([2]; 12 cycles of treatment): 46%
- level of progesterone reduced as compared to the controls ([2]; all results (sheet 5), cycles of treatment): 46%
- level of seric progesterone in the 2 cycles of post-treatment ([2]; sheet 4, post-treatment cycles): return to normal
- level of seric progesterone in the 2 cycles of treatment ([2]; sheet 4, treatment cycles): accelerated diminution
- reduction of seric levels of progesterone as compared to the controls ([2]; first cycle of treatment, intranasal 500 μg at 8 A.M. and 5 P.M.): 13%
- reduction of seric levels of progesterone as compared to the controls ([2]; second cycle of treatment): 34%
- level of androgenic steroids [3]: diminution

— patent US4745102A, “Novel treatment method” (Roussel Uclaf, priority 1979, dated 1988)
